Measurements reported in US20240082162A1, “PHARMACEUTICAL FORMULATIONS OF PILOCARPINE R-(+)-LIPOATE” (Cellix Bio Private Limited, priority 2020, published 2024).
“And” between values parts separate entries of the source, which are not always exact repeats. Equal entries are not always repeated. Structures can show the parent of a compound that is named as a salt.

Tested on: A-253 human salivary gland cell line
Experiment: iROS assay (DCFH-DA), H2O2-induced oxidative stress in A-253 cells
Assay type: cell-based
Conditions: for iROS assay - normalised data vs H2O2 (single values) / iROS assay - normalised data vs H2O2, Average / iROS assay - normalized data (single values) / iROS assay - normalized data, Average: H2O2(1 mM), 24 hours; for iROS assay - normalised data vs H2O2 (single values) / iROS assay - normalised data vs H2O2, Average: H2O2 alone = 1; for iROS assay - normalized data (single values) / iROS assay - normalized data, Average: unstimulated cells = 1; for Effect on iROS induced by H2O2 (in words): A-253 cells, 3-1000 μM
Method: Objective: The objective of this study was to investigate the effect of the test compound (CLX 156), on H2O2-induced oxidative stress in human submaxillary gland (HSG) cell line; A-253 cell line, in comparison with pilocarpine hydrochloride. Method: A-253 human salivary gland cell line was cultured in McCoy's 5a Medium Modified (ATCC) with 10% HI-FBS according to manufacturer's guidelines at 37° C. in the presence of 5% CO 2 in a humified incubator. The cells were sub-cultured using Trypsin-EDTA and 10,000 cells seeded into each 48 well cell culture plates with a media volume of 500 μl. The cells were allowed to grow for 48 hours. After 48 hours of culture, the cells were pre-incubated for 1 hour with the positive, reference and test compounds at the desired concentrations (see table 1) followed by the addition of 1 mM H2O2 to the culture media (without the removal of test compounds) to induce oxidative stress. The incubation was continued for 24 hours. After 24 hours of treatment with H2O2, the cells were used to assess iROS as described below. This is a cell-based assay for measuring hydroxyl, peroxyl, or other reactive oxygen species activity within a cell. The assay employs the cell-permeable fluorogenic probe 2′, 7′-Dichlorodihydrofluorescin diacetate (DCFH-DA). In brief, DCFH-DA is diffused into cells and is deacetylated by cellular esterases to non-fluorescent 2′,7′-Dichlorodihydrofluorescin (DCFH), which is rapidly oxidized to highly fluorescent 2′,7′-Dichlorodihydrofluorescein (DCF) by ROS. The fluorescence intensity is proportional to the ROS levels within the cell cytosol. OxiSelect˜ Intracellular ROS Assay Kit was used according to the manufacturer's guidelines (Cell Biolabs). In short, at Day 3 the cells were washed several times with PBS and then treated with 1X DCFH-DA in media and incubated for 30-60 minutes. After DCFH-DA treatment, the oxidative stress was induced by adding 1 mM H2O2 and the fluorescence signals measured after 24 hours using a plate reader.

Structure (SMILES)	iROS assay - normalised data vs H2O2, Average (3 μM)	iROS assay - normalized data, Average (3 μM)	iROS assay - normalised data vs H2O2, Average (10 μM)	iROS assay - normalized data, Average (10 μM)	iROS assay - normalised data vs H2O2, Average (30 μM)	iROS assay - normalized data, Average (30 μM)	iROS assay - normalised data vs H2O2, Average (100 μM)	iROS assay - normalized data, Average (100 μM)	iROS assay - normalised data vs H2O2, Average (300 μM)	iROS assay - normalized data, Average (300 μM)	iROS assay - normalised data vs H2O2, Average (1000 μM)	iROS assay - normalized data, Average (1000 μM)	Effect on iROS induced by H2O2 (in words)	further results
CC[C@@H]1C(=O)OC[C@@H]1Cc1cncn1C.O=C(O)CCCC[C@@H]1CCSS1 [CLX 156, Pilocarpine-R-(+)-lipoate]	0.8035	6.0747	0.7206	5.4481	0.7536	5.6971	0.7541	5.7012	0.6581	4.9751	0.4638	3.5062	significantly inhibited the iROS induced by H2O2 in A-253 cells in a concentration dependent manner	iROS assay - normalised data vs H2O2 (single values) (3 μM): 0.8216 and 0.8019 and 0.7870; iROS assay - normalized data (single values) (3 μM): 6.2116 and 6.0622 and 5.9502; iROS assay - normalised data vs H2O2 (single values) (10 μM): 0.7047 and 0.6981 and 0.7591; iROS assay - normalized data (single values) (10 μM): 5.3278 and 5.2780 and 5.7386; iROS assay - normalised data vs H2O2 (single values) (30 μM): 0.7294 and 0.7558 and 0.7755; iROS assay - normalized data (single values) (30 μM): 5.5145 and 5.7137 and 5.8631; iROS assay - normalised data vs H2O2 (single values) (100 μM): 0.7887 and 0.7377 and 0.7360; iROS assay - normalized data (single values) (100 μM): 5.9627 and 5.5768 and 5.5643; iROS assay - normalised data vs H2O2 (single values) (300 μM): 0.6224 and 0.6965 and 0.6553; iROS assay - normalized data (single values) (300 μM): 4.7054 and 5.2656 and 4.9544; iROS assay - normalised data vs H2O2 (single values) (1000 μM): 0.4676 and 0.4396 and 0.4841; iROS assay - normalized data (single values) (1000 μM): 3.5353 and 3.3237 and 3.6598; Inhibition of iROS compared with Pilocarpine HCL (in words) (A-253 salivary gland cell culture model): superior to Pilocarpine HCL in inhibiting the iROS induced by H2O2; IC50 (H2O2-induced iROS in A-253 cells, read-out: IC50 for Intracellular ROS (iROS) inhibition): 552 µM
CC[C@@H]1C(=O)OC[C@@H]1Cc1cncn1C [Pilocarpine HCl, pilocarpine hydrochloride, reference compound]	1.0401	7.8631	0.9018	6.8174	0.8952	6.7676	0.9226	6.9751	0.9265	7.0041	0.9040	6.8340	comparatively less in magnitude and showed no clear dose response	iROS assay - normalised data vs H2O2 (single values) (3 μM, hydrochloride): 0.9995 and 1.0274 and 1.0933; iROS assay - normalized data (single values) (3 μM, hydrochloride): 7.5560 and 7.7676 and 8.2656; iROS assay - normalised data vs H2O2 (single values) (10 μM, hydrochloride): 0.8825 and 0.8760 and 0.9468; iROS assay - normalized data (single values) (10 μM, hydrochloride): 6.6722 and 6.6224 and 7.1577; iROS assay - normalised data vs H2O2 (single values) (30 μM, hydrochloride): 0.8941 and 0.8332 and 0.9583; iROS assay - normalized data (single values) (30 μM, hydrochloride): 6.7593 and 6.2988 and 7.2448; iROS assay - normalised data vs H2O2 (single values) (100 μM, hydrochloride): 0.9550 and 0.9336 and 0.8793; iROS assay - normalized data (single values) (100 μM, hydrochloride): 7.2199 and 7.0581 and 6.6473; iROS assay - normalised data vs H2O2 (single values) (300 μM, hydrochloride): 0.9040 and 0.8858 and 0.9896; iROS assay - normalized data (single values) (300 μM, hydrochloride): 6.8340 and 6.6971 and 7.4813; iROS assay - normalised data vs H2O2 (single values) (1000 μM, hydrochloride): 0.8924 and 0.8842 and 0.9352; iROS assay - normalized data (single values) (1000 μM, hydrochloride): 6.7469 and 6.6846 and 7.0705
